Like-named read-outs stand apart in the source and are kept apart here.
Columns and labels:
α5β3γ2 receptor = molecular target: T1, α5β3γ2 receptor (Homo sapiens, UniProt P18507+P31644); experiment: Cell level screening: whole cell patch clamp, inverse agonist efficacy; type: cell-based; conditions: for inverse agonism efficacy of the compound/α5IA inverse agonism efficacy: ratio to α5IA, compound 100 nM
T1 construct: expressed in transfected cells; host or cells: HEK-293 (stably transfected)

[1] = Tissue distribution of the compounds (brain/plasma); type: in vivo; conditions: brain and plasma, po; rat, 10 mg/kg p.o. in 50% PEG400, one hour; read-out: Brain/Plasma ratio
Experimental: The distribution ratio of blood brain tissue was calculated by comparing the concentration of compound in rat plasma and brain tissue. The experimental animals were divided into two groups, the plasma group and the brain group, each with three. Rats were administed compounds in 50% PEG400 p.o. at a dose of 10 mg compound to be tested/kg. One hour later, plasma and brain samples were taken. Concentrations of compounds in brain and plasma were detected using LC-MS/MS-A (Triple Quad 5500) assay and analyzed using Phoenix WinNonlin.

[2] = HEK293, compound 100 nM, GABA 0.05-0.1 μM, HEK293 α5β3γ2, clamped at −60 mV, (Ipost-Ipre)*100/Ipre, read-out: inverse agonism efficacy(%)

T1 sequence (P31644 32-462): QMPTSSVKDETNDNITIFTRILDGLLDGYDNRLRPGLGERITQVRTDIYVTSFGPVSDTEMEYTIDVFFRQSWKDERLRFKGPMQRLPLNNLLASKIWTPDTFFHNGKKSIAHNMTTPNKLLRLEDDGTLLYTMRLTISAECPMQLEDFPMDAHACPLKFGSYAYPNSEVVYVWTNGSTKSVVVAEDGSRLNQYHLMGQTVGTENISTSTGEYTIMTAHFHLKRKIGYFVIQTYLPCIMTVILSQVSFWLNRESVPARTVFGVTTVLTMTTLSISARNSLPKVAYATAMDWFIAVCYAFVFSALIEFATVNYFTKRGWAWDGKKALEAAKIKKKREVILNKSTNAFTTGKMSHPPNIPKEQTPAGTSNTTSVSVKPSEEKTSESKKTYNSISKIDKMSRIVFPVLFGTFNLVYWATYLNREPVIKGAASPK
T1 sequence (P28472 26-473 isoform P28472-2 partner limits assumed): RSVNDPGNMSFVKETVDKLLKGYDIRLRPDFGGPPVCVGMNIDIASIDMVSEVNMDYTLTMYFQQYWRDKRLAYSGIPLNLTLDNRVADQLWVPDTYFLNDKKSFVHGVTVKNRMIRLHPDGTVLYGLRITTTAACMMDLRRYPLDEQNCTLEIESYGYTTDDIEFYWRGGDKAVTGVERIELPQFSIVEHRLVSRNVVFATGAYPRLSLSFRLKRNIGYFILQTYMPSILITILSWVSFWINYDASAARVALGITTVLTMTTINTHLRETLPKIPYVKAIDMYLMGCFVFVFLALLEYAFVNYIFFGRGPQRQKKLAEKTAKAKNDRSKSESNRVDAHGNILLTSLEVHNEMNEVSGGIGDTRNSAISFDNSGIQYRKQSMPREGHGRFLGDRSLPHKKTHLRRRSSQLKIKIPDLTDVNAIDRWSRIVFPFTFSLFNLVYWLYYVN
T1 sequence (P18507 40-475): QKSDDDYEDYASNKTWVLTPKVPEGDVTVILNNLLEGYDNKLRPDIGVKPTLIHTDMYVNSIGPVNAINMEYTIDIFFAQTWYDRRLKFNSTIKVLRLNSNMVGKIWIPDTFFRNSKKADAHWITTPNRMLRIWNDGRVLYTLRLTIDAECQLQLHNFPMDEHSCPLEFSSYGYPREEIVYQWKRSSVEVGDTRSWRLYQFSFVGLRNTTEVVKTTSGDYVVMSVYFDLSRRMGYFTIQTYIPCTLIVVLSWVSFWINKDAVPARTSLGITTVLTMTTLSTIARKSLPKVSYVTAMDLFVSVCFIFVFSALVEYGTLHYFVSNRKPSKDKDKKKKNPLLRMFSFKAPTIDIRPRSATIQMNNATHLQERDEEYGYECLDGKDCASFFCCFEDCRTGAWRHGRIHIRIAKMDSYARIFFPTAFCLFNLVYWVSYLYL

SMILES: CCNC(=O)c1ccc(COc2nn3c(-c4cc(C)on4)nnc3c3ccccc23)nc1 [Compound 07, N-ethyl-6-(((3-(5-methylisoxazol-3-yl)-[1,2,4]triazolo[3,4-a]phthalazin-6-yl)oxy)methyl)nicotinamide]
- inhibition at 0.1 µM (α5β3γ2 receptor; [2]): 24.8%
- inhibition at 0.01 µM (α5β3γ2 receptor; dose-efficacy, Con. 10 nM, single replicates, read-out: Inverse agonism-Efficacy): 25.5%
- inhibition at 0.05 µM (α5β3γ2 receptor; dose-efficacy, Con. 50 nM, single replicates, read-out: Inverse agonism-Efficacy): 40%
- inhibition at 0.1 µM (α5β3γ2 receptor; dose-efficacy, Con. 100 nM, single replicates, read-out: Inverse agonism-Efficacy): 45.8%
- inhibition at 1 µM (α5β3γ2 receptor; dose-efficacy, Con. 1000 nM, single replicates, read-out: Inverse agonism-Efficacy): 39.1%
- inverse agonism efficacy of the compound/α5IA inverse agonism efficacy (α5β3γ2 receptor): 1.1
- Kp at 1 h [1]: < 0.01

SMILES: COCCNC(=O)c1ccc(COc2nn3c(-c4cc(C)on4)nnc3c3ccccc23)nc1 [Compound 08, N-(2-methoxyethyl)-6-(((3-(5-methylisoxazol-3-yl)-[1,2,4]triazolo[3,4-a]phthalazin-6-yl)oxy)methyl)nicotinamide]
- inhibition at 0.1 µM (α5β3γ2 receptor; [2]): 34%
- inverse agonism efficacy of the compound/α5IA inverse agonism efficacy (α5β3γ2 receptor): 1.508
- Kp at 1 h [1]: < 0.01

Source: US11220503B2, “Phthalazine derivatives, preparation method, pharmaceutical composition and usage thereof” (Shanghai SIMR Biotech Co., Ltd., priority 2015, dated 2022)
